# Source: publication PMC7175131, “Synthesis, In Vitro Evaluation and Molecular Docking of the 5-Acetyl-2-aryl-6-hydroxybenzo[b]furans against Multiple Targets Linked to Type 2 Diabetes” (Biomolecules, 2020)
# Values joined by “and” are separate entries in the source; they are usually repeats but may differ in a detail not shown here. Equal values may be shown once. Read-outs that look alike come from different tables or passages of the source.
# Experiments:
# [1] = DPPH radical scavenging assay; settings: DPPH 0.3 mM in methanol, 45 min in the dark, 512 nm
# Experimental: Antioxidant activities of compounds 2a–h against ascorbic acid (Sigma Aldrich, Saint Louis, Missouri, USA) as a positive control were evaluated using 2,2-diphenyl-1-picrylhydrazyl (DPPH) radical scavenging assay following a reported method by Zhu et al.. Triplicate solutions of the test compounds and the control in methanol (concentrations ranging from 0 µM to 50 µM) were treated with a solution of DPPH (0.3 mM) in methanol. The mixtures were incubated in the dark for 45 min and the absorbances were recorded at the wavelength of 512 nm using Varioskan flash microplate spectrophotometer reader. The inhibition was calculated in terms of percentage using the formula below, DPPH radical scavenged (%)=AbC − AbS/AbC×100, where AbC is absorbance of control and AbS the absorbance of the test sample. A graph of percentage inhibition of free radical activity was plotted against concentration of the sample.
# [2] = target: T1, α-Glucosidase type 1 from baker's yeast (Saccharomyces cerevisiae, UniProt P53341); experiment: biochemical; assay type: biochemical
# T1 construct: purchased Sigma Aldrich (Pty) Ltd
# Experimental: The IC50 values of these compounds were calculated through the nonlinear regression analysis using Origin Pro 9.0 (OriginLab Corporation, Northampton, MA, USA) and are expressed as the mean standard deviation (SD) of three distinct experiments.
# PTP1B [3] = target: T2, PTP1B (Homo sapiens, UniProt P18031); experiment: PTP1B inhibition assay (pNPP substrate); assay type: biochemical; settings: Hepes buffer pH 7.0, triplicate
# T2 construct: purchased Sigma Aldrich, Modderfontein, South Africa
# T2 sequence (P18031 1-435): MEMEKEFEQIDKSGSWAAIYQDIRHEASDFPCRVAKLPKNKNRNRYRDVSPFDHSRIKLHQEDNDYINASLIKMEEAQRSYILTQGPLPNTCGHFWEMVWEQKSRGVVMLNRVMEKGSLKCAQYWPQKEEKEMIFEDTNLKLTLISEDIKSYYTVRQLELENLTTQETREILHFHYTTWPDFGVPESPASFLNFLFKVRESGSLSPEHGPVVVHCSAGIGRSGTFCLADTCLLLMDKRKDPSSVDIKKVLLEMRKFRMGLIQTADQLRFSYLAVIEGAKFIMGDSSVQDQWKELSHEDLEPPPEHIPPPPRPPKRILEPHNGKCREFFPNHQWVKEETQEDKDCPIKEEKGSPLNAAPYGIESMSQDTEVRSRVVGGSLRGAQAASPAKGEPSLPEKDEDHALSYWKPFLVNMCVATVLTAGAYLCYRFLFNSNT
# Experimental: Activity of PTPase (Sigma Aldrich, Modderfontein, South Africa) was evaluated using p-nitrophenylphosphate (PNPP) as the substrate. […] The reaction was stopped by the addition of 30 μL of 3 M NaOH and absorbance was determined at wavelength of 410 nm. Control tubes without the enzyme were ran in parallel to nullify the nonenzymatic reaction and for calculating the concentration of p-nitrophenolate ions produced in the reaction mixture.
# [4] = target: T3, human recombinant β-secretase (Homo sapiens, UniProt P56817); experiment: β-secretase (BACE-1) FRET enzyme assay; assay type: biochemical; settings: for IC50: FRET, sodium acetate pH 4.5, 60 min, triplicate
# T3 construct: purchased Pan Vera / Thermo Fisher Scientific Corporation; host or cells: baculovirus expression
# Experimental: The assays were conducted in triplicates. […] The percentage inhibition was calculated using the following equation: Inhibition (%)=1–(S –S0)/(C –C0) ×100, where C is the fluorescence of control (enzyme, assay buffer and substrate) after 60 min of incubation, C0 is the fluorescence of control at time 0, S is the fluorescence of tested samples (enzyme, sample solution and substrate) after 60 min. of incubation and S0 the fluorescence of the tested samples at time 0. The IC50 values were calculated with Origin Pro 9.0. (OriginLab Corporation).
# cyclooxygenase-2 (COX-2) = target: T4, cyclooxygenase-2 (COX-2) (Homo sapiens, UniProt P35354); experiment: COX-2 inhibitor screening kit assay; settings: COX-2 IC50, means from duplicate runs
# T4 sequence (P35354 18-604): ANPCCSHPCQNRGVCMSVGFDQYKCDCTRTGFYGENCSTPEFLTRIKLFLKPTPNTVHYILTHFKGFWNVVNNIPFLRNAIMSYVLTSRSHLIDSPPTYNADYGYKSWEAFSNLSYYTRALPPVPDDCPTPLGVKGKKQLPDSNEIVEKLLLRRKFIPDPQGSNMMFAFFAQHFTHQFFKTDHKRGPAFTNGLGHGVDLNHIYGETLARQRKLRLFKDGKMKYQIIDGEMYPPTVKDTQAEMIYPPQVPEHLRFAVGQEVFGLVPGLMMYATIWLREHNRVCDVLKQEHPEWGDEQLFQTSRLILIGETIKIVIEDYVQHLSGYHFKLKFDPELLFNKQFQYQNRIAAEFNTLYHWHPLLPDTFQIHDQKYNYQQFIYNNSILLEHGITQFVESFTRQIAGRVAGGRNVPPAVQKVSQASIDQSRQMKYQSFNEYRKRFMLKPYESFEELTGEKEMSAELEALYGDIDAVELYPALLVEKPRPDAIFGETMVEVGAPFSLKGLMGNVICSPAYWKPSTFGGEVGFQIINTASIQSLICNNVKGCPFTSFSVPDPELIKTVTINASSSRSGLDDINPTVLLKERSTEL
# Experimental: The absorbance was measured using a Varioskan flash microplate spectrophotometer and the IC50 values were calculated with the aid of Origin Pro 9.0.
# α-glucosidase = target: T5, α-glucosidase (Saccharomyces cerevisiae, UniProt P53341); experiment: Kinetic studies towards α-glucosidase inhibition (Lineweaver-Burk and Dixon plots); assay type: biochemical; settings: for mode of inhibition of α-glucosidase: Lineweaver-Burk and Dixon plots; for Ki: inhibitor 0.5-20 µM, substrate 0–25 µM, read-out: Ki (Dixon plot), α-glucosidase
# T5 construct: purchased Sigma Aldrich (Pty) Ltd
# Experimental: The α-glucosidase inhibitory activity of compounds 2a–h was evaluated in triplicates in a 96 well microplate following a protocol by Shi et al.. […] Then 20 µL of 2 mM PNP-G was added and the absorbances were recorded at a wavelength of 405 nm using Varioskan flash microplate spectrophotometer (Thermo Scientific, Waltham, MA, USA). The IC50 values of these compounds were calculated through the nonlinear regression analysis using Origin Pro 9.0 (OriginLab Corporation, Northampton, MA, USA) and are expressed as the mean standard deviation (SD) of three distinct experiments.
# The kinetics studies on compounds 2c and 2h were performed according to the reaction conditions in 2.3.1 with inhibitors of various concentrations (0.5, 5, 10, 20 µM) and the ranges of final substrate concentration were 0–25 µM. The type of inhibition was determined by using Lineweave-Burk plot (the inverse of velocity (1/v) against the inverse of the substrate concentration (1/[S]). The inhibitor constant was obtained by Dixon plot (the inverse of velocity (1/v) against concentration of inhibitor at each substrate concentration).
# PTP1B [5] = target: T2, PTP1B; experiment: Kinetic studies towards PTP1B inhibition (Lineweaver-Burk and Dixon plots); assay type: biochemical; settings: for mode of inhibition of PTP1B: Lineweaver-Burk and Dixon plots; for Ki: inhibitor 0.5-20 µM, substrate 0-25.0 µM, read-out: Ki (Dixon plot), PTP1B
# Experimental: The PTP1B inhibitory activity of compounds 2a–h and sodium orthovanadate was evaluated in triplicates in a 96 well microplate following a protocol by Goldstein et al.. Activity of PTPase (Sigma Aldrich, Modderfontein, South Africa) was evaluated using p-nitrophenylphosphate (PNPP) as the substrate. A 10 μL of PTP1B solution (0.02 U/mL) in 50 mM Hepes buffer (pH 7.0) with different concentrations (0.5, 10, 25, 50, 100 μM) of the test compounds and the reference standard were incubated at 25 °C for 10 min. After pre-incubation, 25 μL of HEPES buffer and 25 μL of 2 mM (pNPP) were added and the mixtures were incubated at 37 °C for 30 min. The reaction was stopped by the addition of 30 μL of 3 M NaOH and absorbance was determined at wavelength of 410 nm. Control tubes without the enzyme were ran in parallel to nullify the nonenzymatic reaction and for calculating the concentration of p-nitrophenolate ions produced in the reaction mixture. A molar extinction coefficient of 1.78 ×10^4 M^-1 cm^-1 was used to calculate the concentration of p-nitrophenolate ions produced in the reaction mixture.
# Compounds 2c and 2h were subjected to kinetic analysis following the procedure outlined in 2.3.2 with inhibitors of various concentrations (0.5, 5, 10, 20 µM). The assay was performed with substrate of various concentrations (0, 2.5, 6.25, 12.5, 25.0 µM). The absorbance due to the p-nitrophenol produced by dephosphorylation of PTP1B was measured at 405 nm. The kinetic parameters were determined using Lineweaver-Burk double-reciprocal plots and the Dixon the Dixon plot method at increasing substrate and compound concentrations.
# [6] = yeast enzyme, PNP-G substrate, pH 6.8, 37 °C, mean ± SD, triplicate, read-out: IC50 α-Glucosidase
# T3 sequence (P56817 46-501): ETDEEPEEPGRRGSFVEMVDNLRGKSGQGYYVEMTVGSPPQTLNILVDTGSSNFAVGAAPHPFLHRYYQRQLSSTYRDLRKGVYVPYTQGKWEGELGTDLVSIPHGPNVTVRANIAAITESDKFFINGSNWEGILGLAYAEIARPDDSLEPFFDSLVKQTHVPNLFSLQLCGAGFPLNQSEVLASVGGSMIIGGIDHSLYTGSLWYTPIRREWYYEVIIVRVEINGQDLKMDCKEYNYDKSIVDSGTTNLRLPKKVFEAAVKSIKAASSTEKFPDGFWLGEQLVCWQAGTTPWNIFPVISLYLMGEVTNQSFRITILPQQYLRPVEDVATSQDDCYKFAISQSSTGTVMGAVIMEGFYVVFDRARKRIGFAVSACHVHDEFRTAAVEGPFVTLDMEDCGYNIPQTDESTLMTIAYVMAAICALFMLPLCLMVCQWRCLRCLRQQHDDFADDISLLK
# T1 sequence (P53341 whole entry): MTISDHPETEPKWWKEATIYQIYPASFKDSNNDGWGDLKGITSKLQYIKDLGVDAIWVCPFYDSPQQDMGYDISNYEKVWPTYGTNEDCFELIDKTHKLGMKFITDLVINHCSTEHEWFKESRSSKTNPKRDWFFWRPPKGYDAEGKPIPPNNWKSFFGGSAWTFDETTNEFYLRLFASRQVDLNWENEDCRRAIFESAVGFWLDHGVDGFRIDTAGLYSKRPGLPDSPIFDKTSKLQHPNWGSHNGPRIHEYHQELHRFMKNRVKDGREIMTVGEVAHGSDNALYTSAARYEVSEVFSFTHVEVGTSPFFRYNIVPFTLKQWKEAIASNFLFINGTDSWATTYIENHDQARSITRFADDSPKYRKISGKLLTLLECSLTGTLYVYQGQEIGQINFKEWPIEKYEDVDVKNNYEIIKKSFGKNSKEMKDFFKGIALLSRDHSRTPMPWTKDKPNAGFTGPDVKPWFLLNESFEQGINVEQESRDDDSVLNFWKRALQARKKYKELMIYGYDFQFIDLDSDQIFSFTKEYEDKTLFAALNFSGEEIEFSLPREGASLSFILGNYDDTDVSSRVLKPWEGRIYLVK
# T5 sequence (P53341 whole entry): as above
Compound,IC50 [1],IC50 [2] [µM],activity against α-glucosidase (in words) ([2]; tested 0–100 μM),IC50 (PTP1B [3]) [µM],IC50 [4] [µM],"IC50 [2, 6] [µM]",IC50 (cyclooxygenase-2 (COX-2)),mode of inhibition of α-glucosidase (α-glucosidase),Ki (α-glucosidase) [µM],mode of inhibition of PTP1B (PTP1B [5]),Ki (PTP1B [5]) [µM],melting point [°C],activity against β-secretase (in words) [4],"Vmax, α-glucosidase in presence of inhibitor (α-glucosidase; unchanged with inhibitor concentration)"
"O=C1O[C@H]([C@@H](O)CO)C(O)=C1O [Ascorbic acid, ascorbic acid, reference compound]",10.7 ± 0.42 µM,–,–,–,–,–,–,–,–,–,–,–,–,–
"CC(=O)c1cc2cc(-c3ccccc3)oc2cc1O [Compound 2a, 1-[6-Hydroxy-2-phenylbenzofuran-5-yl]ethanone]",12.2 ± 2.1 µM,> 100,No activity,23 ± 0.23,63.15 ± 0.07,–,–,–,–,–,–,–,–,–
"CC(=O)c1cc2cc(-c3cccc(F)c3)oc2cc1O [Compound 2b, 1-[2-(3-Fluorophenyl)-6-hydroxybenzofuran-5-yl]ethanone]",46.5 ± 0.24 µM,–,–,24.5 ± 0.29,> 100,4.65 ± 0.13,–,–,–,–,–,–,–,–
"CC(=O)c1cc2cc(-c3ccc(F)cc3)oc2cc1O [Compound 2c, 1-[2-(4-Fluorophenyl)-6-hydroxybenzofuran-5-yl]ethanone]",9.8 µM and 9.82 µM,–,–,17.8,> 100,0.11 ± 0.04,2.8 µM and 2.81 µM,non-competitive,15.09 ± 0.03,mixed-type,5.2 ± 0.1,–,–,–
"CC(=O)c1cc2cc(-c3cccc(Cl)c3)oc2cc1O [Compound 2d, 1-[2-(3-Chlorophenyl)-6-hydroxybenzofuran-5-yl]ethanone]",15.5 ± 0.21 µM,–,–,29.3,> 100,> 100,–,–,–,–,–,–,–,–
"CC(=O)c1cc2cc(-c3ccc(Cl)cc3)oc2cc1O [Compound 2e, 1-[2-(4-Chlorophenyl)-6-hydroxybenzofuran-5-yl]ethanone]",11.3 ± 1.2 µM,64.9 ± 0.05,–,21.5,> 100,–,–,–,–,–,–,170 to 173,–,–
"CC(=O)c1cc2cc(-c3ccc(C)cc3)oc2cc1O [Compound 2f, 1-[6-Hydroxy-2-(4-tolyl)benzofuran-5-yl]ethanone]",26.7 ± 0.62 µM,14.05 ± 0.07,–,26.7,> 100,–,–,–,–,–,–,169 to 172,inactive,–
"COc1ccc(-c2cc3cc(C(C)=O)c(O)cc3o2)cc1 [Compound 2g, 1-[6-Hydroxy-2-(4-methoxyphenyl)benzofuran-5-yl]ethanone]",16.8 ± 0.38 µM,–,–,31.9,27.3 ± 1.1,0.56 ± 0.24,2.3 µM and 2.33 µM,–,–,–,–,–,–,–
"COc1cc(OC)cc(-c2cc3cc(C(C)=O)c(O)cc3o2)c1 [Compound 2h, 1-[6-Hydroxy-2-(3,5-dimethoxyphenyl)benzofuran-5-yl]ethanone]",6.28 ± 0.33 µM,–,–,11.9 ± 0.35,25.8 ± 0.08,0.78 ± 0.31,99.6 ± 2.6 µM,mixed mode,5.11 ± 0.42,non-competitive,0.49 ± 0.01,155 to 156,–,0.19
